# Laboratory results reported in paper PMC4042160, “In silico, in vitro and cellular analysis with a kinome-wide inhibitor panel correlates cellular LRRK2 dephosphorylation to inhibitor activity on LRRK2” (Frontiers in Molecular Neuroscience, 2014).
# Where a name gives a salt, the structure may show the parent alone.
# Experiments:
# LRRK2 phospho-Ser935 = target: T1, LRRK2 phospho-Ser935 (Homo sapiens, UniProt Q5S007); assay: Cellular LRRK2 phosphoserine 935 dephosphorylation spotblot assay in SH-SY5Y cells stably expressing 3xFlag-LRRK2; assay type: cell-based; settings: for Phosphorylation level relative to solvent (%) (cellular pS935 assay): @ 5 μM for 2 h, SH-SY5Y stably expressing LRRK2, pS935/total LRRK2
# T1 construct: expressed in transfected cells
# [1] = target: T2, GST-tagged truncated LRRK2 containing residues 970 to 2527 (Homo sapiens, UniProt Q5S007); assay: In vitro LRRKtide peptide-substrate kinase assay, single dose testing (10 μM); assay type: biochemical; settings: for % LRRKtide phosphorylation relative to solvent: LRRKtide assay @ 10 μM inhibitor, GST-LRRK2 970-2527, 10 μM ATP, mean, N = 3, solvent control = 100%
# T2 construct: GST-tagged truncated LRRK2 containing residues 970 to 2527 (Life Technologies); purchased Life Technologies
# T2 sequence (Q5S007 970-2527): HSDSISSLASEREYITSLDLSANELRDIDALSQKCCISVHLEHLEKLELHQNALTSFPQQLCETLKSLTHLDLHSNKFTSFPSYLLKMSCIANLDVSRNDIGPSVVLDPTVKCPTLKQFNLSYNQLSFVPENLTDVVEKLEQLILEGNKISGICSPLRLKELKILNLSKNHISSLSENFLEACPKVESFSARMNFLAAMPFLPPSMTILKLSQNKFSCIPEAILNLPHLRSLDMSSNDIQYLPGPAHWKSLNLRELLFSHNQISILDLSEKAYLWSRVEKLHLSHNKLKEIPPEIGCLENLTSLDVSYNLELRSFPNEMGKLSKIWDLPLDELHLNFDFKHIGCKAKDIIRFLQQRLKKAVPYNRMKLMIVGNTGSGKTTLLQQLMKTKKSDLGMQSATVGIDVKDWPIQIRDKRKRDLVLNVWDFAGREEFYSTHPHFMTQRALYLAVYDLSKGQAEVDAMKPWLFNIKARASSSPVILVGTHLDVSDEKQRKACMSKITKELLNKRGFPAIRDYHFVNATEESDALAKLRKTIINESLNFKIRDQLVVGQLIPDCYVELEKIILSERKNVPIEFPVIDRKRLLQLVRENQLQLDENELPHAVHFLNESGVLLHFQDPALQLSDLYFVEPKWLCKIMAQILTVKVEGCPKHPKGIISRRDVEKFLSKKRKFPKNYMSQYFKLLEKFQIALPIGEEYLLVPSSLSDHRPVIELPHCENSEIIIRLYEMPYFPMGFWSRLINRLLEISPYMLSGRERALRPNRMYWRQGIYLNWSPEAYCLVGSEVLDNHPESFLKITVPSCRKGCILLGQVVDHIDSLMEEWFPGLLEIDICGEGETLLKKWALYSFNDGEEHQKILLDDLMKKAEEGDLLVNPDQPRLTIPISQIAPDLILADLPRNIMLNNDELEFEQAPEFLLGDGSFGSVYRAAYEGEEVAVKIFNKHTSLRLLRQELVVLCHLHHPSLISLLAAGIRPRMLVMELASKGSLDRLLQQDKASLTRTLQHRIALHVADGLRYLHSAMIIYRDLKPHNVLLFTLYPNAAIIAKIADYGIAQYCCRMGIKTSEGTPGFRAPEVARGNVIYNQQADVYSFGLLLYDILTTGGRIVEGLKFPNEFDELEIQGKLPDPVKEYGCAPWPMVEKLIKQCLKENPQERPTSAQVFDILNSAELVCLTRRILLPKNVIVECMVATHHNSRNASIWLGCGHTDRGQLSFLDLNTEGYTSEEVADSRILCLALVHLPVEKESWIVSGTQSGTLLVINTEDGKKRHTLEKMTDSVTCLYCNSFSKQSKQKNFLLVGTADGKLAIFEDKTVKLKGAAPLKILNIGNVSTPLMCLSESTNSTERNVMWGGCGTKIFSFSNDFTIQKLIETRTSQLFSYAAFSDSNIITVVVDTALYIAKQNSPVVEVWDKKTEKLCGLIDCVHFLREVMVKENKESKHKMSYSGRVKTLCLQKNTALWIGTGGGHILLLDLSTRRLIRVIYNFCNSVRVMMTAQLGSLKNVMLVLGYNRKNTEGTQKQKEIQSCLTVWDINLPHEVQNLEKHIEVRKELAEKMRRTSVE
# T1 sequence (Q5S007 whole entry): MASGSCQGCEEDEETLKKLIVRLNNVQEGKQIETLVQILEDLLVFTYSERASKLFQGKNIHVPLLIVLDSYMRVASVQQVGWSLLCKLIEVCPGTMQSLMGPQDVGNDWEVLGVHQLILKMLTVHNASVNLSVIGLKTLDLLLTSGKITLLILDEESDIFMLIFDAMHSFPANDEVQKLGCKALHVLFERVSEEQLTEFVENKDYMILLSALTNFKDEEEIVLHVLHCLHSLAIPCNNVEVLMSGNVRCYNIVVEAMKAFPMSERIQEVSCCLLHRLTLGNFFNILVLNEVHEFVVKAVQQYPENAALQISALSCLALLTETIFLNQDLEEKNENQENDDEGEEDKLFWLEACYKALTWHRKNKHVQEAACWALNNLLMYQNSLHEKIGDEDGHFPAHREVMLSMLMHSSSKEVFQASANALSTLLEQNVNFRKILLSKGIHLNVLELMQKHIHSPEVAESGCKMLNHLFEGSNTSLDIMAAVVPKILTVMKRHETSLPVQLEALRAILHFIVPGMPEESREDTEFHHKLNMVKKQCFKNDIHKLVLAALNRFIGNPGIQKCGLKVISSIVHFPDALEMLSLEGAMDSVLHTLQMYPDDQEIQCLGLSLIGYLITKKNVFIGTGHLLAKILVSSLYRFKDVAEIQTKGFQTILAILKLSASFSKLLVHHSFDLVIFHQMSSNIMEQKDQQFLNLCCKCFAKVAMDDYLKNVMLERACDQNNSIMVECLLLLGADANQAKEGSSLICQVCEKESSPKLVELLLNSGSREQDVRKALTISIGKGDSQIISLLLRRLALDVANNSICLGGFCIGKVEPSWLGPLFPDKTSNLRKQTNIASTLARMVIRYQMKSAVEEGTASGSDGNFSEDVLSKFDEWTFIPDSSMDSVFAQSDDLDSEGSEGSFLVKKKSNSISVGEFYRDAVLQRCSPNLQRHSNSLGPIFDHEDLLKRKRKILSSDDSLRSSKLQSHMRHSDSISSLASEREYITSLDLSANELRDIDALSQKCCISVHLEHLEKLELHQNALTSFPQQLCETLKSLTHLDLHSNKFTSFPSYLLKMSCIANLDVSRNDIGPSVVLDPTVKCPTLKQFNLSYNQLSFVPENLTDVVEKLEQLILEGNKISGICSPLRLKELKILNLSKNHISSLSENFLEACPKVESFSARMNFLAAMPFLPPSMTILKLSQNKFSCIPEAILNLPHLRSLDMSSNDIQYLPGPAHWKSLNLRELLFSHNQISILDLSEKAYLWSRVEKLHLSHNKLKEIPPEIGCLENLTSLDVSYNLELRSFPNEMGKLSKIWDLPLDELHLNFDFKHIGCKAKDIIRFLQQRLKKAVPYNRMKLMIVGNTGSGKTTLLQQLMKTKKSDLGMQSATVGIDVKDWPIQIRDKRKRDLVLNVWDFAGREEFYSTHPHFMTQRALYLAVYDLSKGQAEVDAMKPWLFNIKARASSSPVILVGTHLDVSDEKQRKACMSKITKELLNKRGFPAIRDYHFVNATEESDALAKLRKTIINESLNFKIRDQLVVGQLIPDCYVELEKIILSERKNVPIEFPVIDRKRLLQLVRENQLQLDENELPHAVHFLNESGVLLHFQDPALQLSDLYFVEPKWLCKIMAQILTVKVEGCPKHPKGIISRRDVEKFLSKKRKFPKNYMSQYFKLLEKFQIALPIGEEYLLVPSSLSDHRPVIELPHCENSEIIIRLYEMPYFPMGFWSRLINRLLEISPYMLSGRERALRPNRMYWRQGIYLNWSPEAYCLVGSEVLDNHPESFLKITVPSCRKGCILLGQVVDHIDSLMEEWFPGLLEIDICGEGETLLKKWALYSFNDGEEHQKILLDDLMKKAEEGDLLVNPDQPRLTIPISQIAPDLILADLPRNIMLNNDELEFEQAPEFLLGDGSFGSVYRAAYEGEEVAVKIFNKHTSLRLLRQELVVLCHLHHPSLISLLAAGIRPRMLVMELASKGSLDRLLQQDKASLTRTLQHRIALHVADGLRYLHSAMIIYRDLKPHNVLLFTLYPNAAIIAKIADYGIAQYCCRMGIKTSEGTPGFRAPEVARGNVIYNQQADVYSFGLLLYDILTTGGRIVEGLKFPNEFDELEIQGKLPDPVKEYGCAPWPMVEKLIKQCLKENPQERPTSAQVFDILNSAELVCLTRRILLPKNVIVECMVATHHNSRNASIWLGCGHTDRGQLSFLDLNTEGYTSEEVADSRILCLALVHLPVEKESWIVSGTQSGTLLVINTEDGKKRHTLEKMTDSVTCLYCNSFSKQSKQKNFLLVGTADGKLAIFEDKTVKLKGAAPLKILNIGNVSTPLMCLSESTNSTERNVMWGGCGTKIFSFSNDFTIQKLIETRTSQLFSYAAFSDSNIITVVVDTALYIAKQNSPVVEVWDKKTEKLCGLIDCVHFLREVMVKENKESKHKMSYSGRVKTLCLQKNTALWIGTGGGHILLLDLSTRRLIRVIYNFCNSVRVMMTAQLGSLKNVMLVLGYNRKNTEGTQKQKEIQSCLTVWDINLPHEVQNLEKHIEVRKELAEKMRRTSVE
Compound,Phosphorylation level relative to solvent (%) (cellular pS935 assay) (LRRK2 phospho-Ser935),% LRRKtide phosphorylation relative to solvent [1] [%],"dephosphorylation of LRRK2 (Ser935) (LRRK2 phospho-Ser935; 5 μM, 2 h, SH-SY5Y)",activity on LRRK2 kinase activity in vitro (in words) ([1]; no activity at 10 μM)
Cc1nc2cc3nc(-c4cccs4)cnc3cc2n1C [AGL 2043],90.06,29.68,–,–
COc1cc2c(cc1OC)-c1[nH]nc(Nc3cccc(F)c3)c1C2 [PDGF receptor tyrosine kinase inhibitor IV],57.30,23.12,–,–
COc1cc2ncc(-c3ccccc3)nc2cc1OC [AG 1296],50.93,22.76,–,–
O=C1C(Cl)=C(N2C(=O)CCC2=O)C(=O)c2ccccc21 [MEK inhibitor II],108.79,21.13,–,–
"COc1ccc(OC)c2c(=S)c3ccccc3[nH]c12 [Cdk4 inhibitor II, 625987, NSC 625987]",70.36,76.06,–,–
N#Cc1c(NC(=O)c2cccc3ccccc23)sc2c1CCCC2 [JNK inhibitor IX],42.05,61.45,–,–
c1ccc(-c2cnc(Nc3ccc(OCCN4CCCC4)cc3)s2)cc1 [Flt-3 inhibitor III],54.21,12.56,–,–
COc1ccc2c(c1)c(C1=C(c3c[nH]c4ccccc34)C(=O)NC1=O)cn2CCCN(C)C [Gö 6983],70.11,3.04,–,–
O=C1NC(=O)/C(=C/c2ccc3nccnc3c2)S1 [PI 3-Kg inhibitor],79.50,62.51,–,–
COc1ccc(-c2cnc3c(-c4ccsc4)cnn3c2)cc1 [VEGF receptor 2 kinase inhibitor IV],48.48,77.83,–,–
Cc1cncc2cccc(S(=O)(=O)N3CCCN(C(=O)CN)C[C@@H]3C)c12 [Rho kinase inhibitor IV],59.98,10.29,–,–
Cn1c2ccccc2c2c3c(c4c5ccccc5n(CCC#N)c4c21)CNC3=O [Gö 6976],56.41,5.79,–,–
"C[C@@H](N)[C@H]1CC[C@H](C(=O)Nc2ccncc2)CC1 [ROCK inhibitor, Y-27632, Y-27632]",69.28,10.36,–,–
COc1ccc(S(=O)(=O)N(CCO)c2ccccc2CN(C)C/C=C/c2ccc(Cl)cc2)cc1 [KN-93],102.70,120.59,–,–
Nc1[nH]nc2nc3ccccc3nc12 [Cdk1/5 inhibitor],123.99,25.04,–,–
O=C1NC(=O)C(c2c[nH]c3ccccc23)=C1c1c[nH]c2ccccc12 [Bisindolylmaleimide IV],84.51,3.07,–,–
O=C(c1cc2cc(O)ccc2[nH]1)c1cc2cc(O)ccc2[nH]1 [Flt-3 inhibitor II],53.00,2.16,–,–
GTP-14564,71.63,18.03,–,–
"CCN1/C(=C/C(C)=O)Sc2ccc(OC)cc21 [Cdc2-like kinase inhibitor, TG003, TG003]",81.30,37.41,–,–
COc1ccc(Cl)cc1NC(=O)Nc1cc(C)nc2ccccc12 [IGF-1R inhibitor II],80.40,93.23,–,–
"O=C1c2ccccc2-[n+]2ccc3c([nH]c4ccccc43)c21 [Fascaplysin, synthetic, Fascaplysin]",45.44,17.51,–,–
O=C(O)c1ccc2c3c1cccc3c(=O)n1c3ccccc3nc21 [STO-609],121.51,15.01,–,–
C[S+]([O-])c1ccc(-c2nc(-c3ccncc3)c(-c3ccc(F)cc3)[nH]2)cc1 (stereo not drawn) [SB 203580],90.32,100.48,–,–
N#CC(C#N)=C(N)/C(C#N)=C/c1ccc(O)cc1 [AG 112],60.39,77.45,–,–
CO[C@H]1C[C@@H]2CC[C@@H](C)[C@@](O)(O2)C(=O)C(=O)N2CCCC[C@H]2C(=O)O[C@H]([C@H](C)C[C@@H]2CC[C@@H](O)[C@H](OC)C2)CC(=O)[C@H](C)/C=C(\C)[C@@H](O)[C@@H](OC)C(=O)[C@H](C)C[C@H](C)/C=C/C=C/C=C/1C [Rapamycin],65.24,101.20,–,–
O=C1NC(=O)c2c1c1c3ccccc3n3c1c1c2c2ccccc2n1C1CCC3O1 [SB 218078],89.51,1.94,–,–

# Continued, values first:
Phosphorylation level relative to solvent (%) (cellular pS935 assay) (LRRK2 phospho-Ser935),% LRRKtide phosphorylation relative to solvent [1] [%],"dephosphorylation of LRRK2 (Ser935) (LRRK2 phospho-Ser935; 5 μM, 2 h, SH-SY5Y)",activity on LRRK2 kinase activity in vitro (in words) ([1]; no activity at 10 μM),Compound
68.59,44.14,–,–,"CC(C)(C)n1nc(Cc2cccc3ccccc23)c2c(N)ncnc21 [PP1 analog II, 1NM-PP1, 1NM-PP1]"
56.68,67.41,–,–,O=C1NC(=O)c2cc(Nc3ccc(F)cc3)c(Nc3ccc(F)cc3)cc21 [PKCbII/EGFR inhibitor]
112.70,24.40,–,–,"c1cc(-c2cnn3cc(-c4ccc(OCCN5CCCCC5)cc4)cnc23)ccn1 [AMPK inhibitor, compound C]"
109.11,17.45,–,–,"CCCCc1c(-c2ccc(OC)cc2)[nH]c2nccnc12 [Aloisine, RP106]"
84.51,100.90,–,–,Ic1cccc(CSc2nnc(-c3ccncc3)o2)c1 [GSK-3b inhibitor II]
57.20,5.76,–,–,PDK1/Akt/Flt dual pathway inhibitor
86.12,3.56,–,–,O=C1NC(=O)C(c2cn(CCCn3ccnc3)c3ccccc23)=C1Nc1ccccc1 [PKCb inhibitor]
78.83,82.04,–,–,NC(=O)c1cccc(-c2cc(Nc3ccc(OC(F)(F)F)cc3)ncn2)c1 [Bcr-abl inhibitor]
63.04,32.15,–,–,"c1ccc2c(-c3ccncc3)c[nH]c2c1 [Rho kinase inhibitor III, rockout, rockout]"
97.11,54.91,–,–,CC(C)c1nn(-c2c(Cl)cccc2Cl)c2nc(Cc3ccc(OCCO)cc3)[nH]c(=O)c12 [Cdk/Crk inhibitor]
96.84,10.82,–,–,"N#CCCc1ccc2c(c1)-c1[nH]c3ccc([N+](=O)[O-])cc3c1CC(=O)N2 [Alsterpaullone, 2-Cyanoethyl]"
89.37,79.40,–,–,"O=S(=O)(c1cccc2cnccc12)N1CCCNCC1 [HA 1077, Dihydrochloride Fasudil, Fasudil]"
83.74,112.29,–,–,CSc1nc(-c2ccnc(NC(C)c3ccccc3)c2)c(-c2ccc(F)cc2)[nH]1 (stereo not drawn) [p38 MAP kinase inhibitor III]
69.13,61.91,–,–,CCN(CC)CCCCN1c2ccccc2Oc2ccc(Cl)cc21 [Akt inhibitor X]
71.85,37.61,–,–,N#CC(c1ccnc(NCCc2cccnc2)n1)c1nc2ccccc2s1 (stereo not drawn) [JNK inhibitor V]
84.67,68.38,–,–,Nc1ncnc2c1cnn2-c1ccccc1 [PP3]
47.60,107.82,~ 50%,inactive,O=c1cc(N2CCNCC2)oc2c(-c3ccccc3)cccc12 [LY 303511]
34.63,0.98,–,–,"CCN(CC)C(=O)c1ccc(Nc2nc(OCC3CCCCC3)c3[nH]cnc3n2)cc1 [Cdk2 inhibitor IV, NU6140, NU6140]"
71.34,88.58,–,–,Oc1cccc(-c2nc(N3CCOCC3)c3oc4ncccc4c3n2)c1 [PI-103]
57.95,104.37,–,–,Cc1cccc(-c2[nH]c(C(C)(C)C)nc2-c2ccc3c(c2)OCO3)n1 [TGF-b RI inhibitor III]
102.87,23.85,–,–,"CCCCc1c(-c2ccc(O)cc2)[nH]c2nccnc12 [Aloisine A, RP107, Aloisine A]"
